Earlier results in patent publication US8679552B2, “Acne vulgaris treatment regimen” (priority 2008, dated 2014).
Each block holds one molecule with its values, some of them ahead of it.

How the values were obtained:
5 alpha-reductase [1] = tested on: 5 alpha-reductase
comedones = conditions: topical
type-1 5 alpha-reductase = target: T1, type-1 5 alpha-reductase (Homo sapiens, UniProt P18405)
T1 sequence (P18405 1-259): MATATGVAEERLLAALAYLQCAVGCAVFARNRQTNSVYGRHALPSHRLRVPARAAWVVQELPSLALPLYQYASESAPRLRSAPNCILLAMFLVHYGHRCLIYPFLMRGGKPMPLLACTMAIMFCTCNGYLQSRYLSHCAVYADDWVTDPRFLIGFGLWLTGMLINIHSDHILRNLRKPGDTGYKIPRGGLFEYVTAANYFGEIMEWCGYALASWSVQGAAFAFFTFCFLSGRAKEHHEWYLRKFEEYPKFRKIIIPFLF

skin irritation = conditions: concentrations of 5%, three to four week period
[2] = tested on: 17-beta-hydroxysteroid dehydrogenase
5 alpha-reductase [3] = tested on: 5 alpha-reductase; remark: listed apart in the source

concentration at which effective / potent 5 alpha-reductase inhibitor (5 alpha-reductase [1]): ≥ 0.2 milliMolar | concentration that is completely inhibitory of 5 alpha-reductase (5 alpha-reductase [1]): 3 milliMolar
Molecule: O=C(O)CCCCCCCC(=O)O [Azelaic acid]

Molecule: CC1=C(/C=C/C(C)=C/C=C/C(C)=C/C=O)C(C)(C)CCC1 [Retinaldehyde]
in vitro antibacterial activity against gram-positive bacteria (gram-positive bacteria): significant in vitro antibacterial activity | effectiveness at preventing comedones (comedones; concentration of 0.1%): as effective at preventing comedones as other topical vitamin A products

Molecule: Cc1ncc(CO)c(CO)c1O.Cl [Vitamin B6, Pyridoxine hydrochloride]
increase in the inhibition of 5 alpha-reductase (5 alpha-reductase [1]; Vitamin B6 (0.025%) added to zinc sulfate (1.5 to 3 milliMolar/liter)): two fold increase

Molecule: [Zn+2] [Zinc cation]
inhibition of 5 alpha-reductase enzyme activity at high concentrations (5 alpha-reductase [1]; high concentrations): completely inhibiting the enzyme activity

Molecule: O=C1c2ccccc2C(=O)c2c1ccc(O)c2O [alizarin]
inhibition of type-1 5 alpha-reductase (type-1 5 alpha-reductase): potent inhibitors

Molecule: Oc1ccc2c(O)c3ccccc3cc2c1O [anthrarobin]
inhibition of type-1 5 alpha-reductase (type-1 5 alpha-reductase): potent inhibitors

inhibition of type-1 5 alpha-reductase (type-1 5 alpha-reductase): potent inhibitors
Molecule: O=c1cc(-c2ccccc2)oc2cc(O)c(O)c(O)c12 [baicalein]

inhibition of type-1 5 alpha-reductase (type-1 5 alpha-reductase): potent inhibitors
Molecule: O=C(/C=C/c1ccc(O)c(O)c1)OCCc1ccccc1 [caffeic acid phenethyl ester]

Molecule: CC(C)(CO)[C@@H](O)C(=O)NCCCO [dexpanthenol]
symptoms of skin irritation (dryness, roughness, scaling, pruritis, erythema, erosion/fissures) (skin irritation): considerably improves

5 alpha-reductase inhibitory activity (5 alpha-reductase [1]): most potent inhibitor
Molecule: O=C1OC[C@H](Cc2cccc(O)c2)[C@H]1Cc1cccc(O)c1 [enterolactone]

inhibition of type-1 5 alpha-reductase (type-1 5 alpha-reductase): potent inhibitors
Molecule: O=c1c(O)c(-c2ccc(O)c(O)c2)oc2cc(O)ccc12 [fisetin]

concentration which suppresses 17-beta-hydroxysteroid dehydrogenase activity [2]: ≥ 4 microMolar
Molecule: CC1(C)[C@@H](O)CC[C@]2(C)[C@H]3C(=O)C=C4[C@@H]5C[C@@](C)(C(=O)O)CC[C@]5(C)CC[C@@]4(C)[C@]3(C)CC[C@@H]12 [glycyrrhetinic acid]

inhibition of type-1 5 alpha-reductase (type-1 5 alpha-reductase): potent inhibitors
Molecule: CCCCCCCCCCCCOC(=O)c1cc(O)c(O)c(O)c1 [lauryl gallate]

inhibition of type-1 5 alpha-reductase (type-1 5 alpha-reductase): potent inhibitors
Molecule: CC(Cc1ccc(O)c(O)c1)C(C)Cc1ccc(O)c(O)c1 (stereo not drawn) [nordihydroguaiaretic acid]

inhibition of type-1 5 alpha-reductase (type-1 5 alpha-reductase): potent inhibitors
Molecule: CCCCCCCCOC(=O)c1cc(O)c(O)c(O)c1 [octyl gallate]

Molecule: O=c1c(O)c(-c2ccc(O)c(O)c2)oc2cc(O)cc(O)c12 [quercitin]
inhibition of type-1 5 alpha-reductase (type-1 5 alpha-reductase): potent inhibitors

Molecule: O=C(O)c1ccccc1O [salicylic acid, Salicylic acid]
comedolytic effect (comedones; concentrations of 0.5% to 2.0%): moderately comedolytic

Molecule: epigallocatechin 3-gallate [EGCG]
inhibition of 5 alpha-reductase in cell-free assay systems (5 alpha-reductase [1]; cell-free): potent inhibition | inhibition of 5 alpha-reductase in whole-cell assay systems (5 alpha-reductase [3]): not in whole-cell assay systems
